Data taken from patent US5225411A, “Disubstituted polymethyleneimines” (priority 1990, dated 1993).

Key:
line DC-3F/AD = assay: Flow cytometry, increase in fluorescence of ADR on the line DC-3F/AD; format: cell-based, Chinese Hamster; conditions: ADR 50 μM, 5 h
Experimental: (§1) By measuring that fluorescence it is possible to obtain a relative measurement of the intracellular concentration of ADR.
(§2) […] After 5 hours' incubation, the intracellular uptake of adriamycin was evaluated by FCM.
(§3) The analysis of each of the samples was carried out on a total of 10,000 cells at a speed of 1000 cells/sec.
(§4) The results were presented in the form of linear histograms of the intracellular ADR fluorescence.
(§5) Expression of the Results
(§6) For each of the histograms, the channel mean fluorescence was determined by the apparatus information system. For all experiments:
(§7) A negative control (cells without ADR) fixed the autofluorescence threshold.
(§8) A positive control (cells with ADR) determined the MEAN value=MN1.
(§9) The "test" tubes (cells with ADR and with compound) were used to determine, for each of the compounds and at each of the concentrations, the MEAN values=MN2.
(§10) The results are expressed in the form of variations from the mean fluorescence obtained for each of the "test" tubes (MN2) in relation to the mean fluorescence obtained with the […] (MNl) : VAR-MEAN=MN2 -MN1. The parameter expressed is thus the increase in the fluorescence of adriamycin in the presence of the tested compounds.

[1] = tested on: murine leukaemia P 388/ADR 10; assay: Evaluation of the increase in cytotoxicity of adriamycin on the line P 388/ADR-10 in vitro (reversion factor); format: cell-based; conditions: adriamycin, P 388/ADR-10, 48 h, TOX = toxic
Experimental: In this study, the cytotoxicity of adriamycin was measured in the absence and in the presence of the reversing compound.
The compounds tested for their capacity to reverse MDR are added at the same time as the cytotoxic agent. The cells are then incubated for 48 hours.

[2] = tested on: Chinese Hamster Pulmonary Line DC-3F/AD; assay: Increase in the cytotoxicity of actinomycin D on the Chinese hamster pulmonary line DC-3F/AD; format: cell-based; conditions: 4 days;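 further: DC-3F/AD is an extremely resistant cell line whose resistance factor exceeds 10,000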
Source text: The cytotoxic agent used was actinomycin D.
Line DC-3F/AD is an extremely resistant line. Its resistance factor is higher than 10,000.

line P 388/ADR 10 = assay: Flow cytometry, increase in fluorescence of ADR on the line P 388/ADR 10; format: cell-based, murine; conditions: ADR 50 μM, 5 h
Experimental: as §1, §2, §3, §4, §5, §6, §7, §8, §9, §10

Structure (SMILES) | Increase in fluorescence of ADR (VAR-MEAN = MN2 - MN1) (line DC-3F/AD; compound 2 μM) | Increase in fluorescence of ADR (VAR-MEAN = MN2 - MN1) (line DC-3F/AD; compound 5 μM) | Increase in fluorescence of ADR (VAR-MEAN = MN2 - MN1) (line DC-3F/AD; compound 10 μM) | Increase in fluorescence of ADR (VAR-MEAN = MN2 - MN1) (line DC-3F/AD; compound 20 μM) | Reversion Factor (RF) ([1]; compound 2.5 μM) | Reversion Factor (RF) ([1]; compound 5 μM) | Reversion Factor (RF) ([1]; compound 10 μM) | Reversion Factor (RF) ([2]; compound 5 μM) | Reversion Factor (RF) ([2]; compound 10 μM) | Reversion Factor (RF) ([2]; compound 20 μM) | Increase in fluorescence of ADR (VAR-MEAN = MN2 - MN1) (line P 388/ADR 10; compound 2 μM) | Increase in fluorescence of ADR (VAR-MEAN = MN2 - MN1) (line P 388/ADR 10; compound 5 μM) | Increase in fluorescence of ADR (VAR-MEAN = MN2 - MN1) (line P 388/ADR 10; compound 10 μM) | Increase in fluorescence of ADR (VAR-MEAN = MN2 - MN1) (line P 388/ADR 10; compound 20 μM) | Reversion Factor (RF) ([2]; compound 2.5 μM)
CCCCc1oc2ccccc2c1C(=O)c1cc(I)c(OCCN(CC)CC)c(I)c1 [AMIODARONE, reference compound] | 8.80 | 16.65 | 21.55 | 26.35 | 37.7 | 104.7 | TOX | 298 | 388 | TOX | 33.40 | 65.25 | 76.33 | 95.85 | –
C=CCNc1nc(NCC=C)nc(NC2CCN(CC(c3ccccc3)c3ccccc3)CC2)n1 [Example 3, 4-[4,6-bis(allylamino)-2-s-triazinyl]amino-1-(2,2diphenylethyl)piperidine] | 8.0 | 19.9 | 21.6 | 19.3 | 39 | 70 | 134.8 | 104 | 240 | – | 29.9 | 46.2 | 66.0 | 73.1 | 38
C=CCNc1nc(NCC=C)nc(N2CCC(N(C)CC(c3ccccc3)c3ccccc3)CC2)n1 [Example 4, 1-[4,6-bis(allylamino)-2-s-triazinyl)-4-[N-(2,2-di-phenylethyl)-N-methylamino]piperidine] | 12.3 | 24.1 | 41.9 | 49.0 | 34.7 | 32.3 | 171.1 | 218 | 1256 | – | – | – | – | – | –
C=CCNc1nc(NCC=C)nc(N2CCC(NCC(c3ccccc3)c3ccccc3)CC2)n1 [Example 5, 1-[4,6-bis(allylamino)-2-s-triazinyl]-4-(2,2-diphenylethylamino)piperidine] | 15.5 | 31.3 | 34.65 | 37.9 | 100 | 189 | 277.4 | 658 | 1504 | TOX | 45.25 | 60.7 | 79.47 | 76.25 | –
C=CCNc1nc(NCC=C)nc(N2CCC(NCCC(c3ccccc3)c3ccccc3)CC2)n1 [Example 6, 1-[4,6-bis(allylamino)-2-s-triazinyl]-4-(3,3-diphenylpropylamino)-piperidine] | 3.9 | 21.5 | 29.75 | TOX | 54.4 | TOX | TOX | 220 | TOX | TOX | 32.9 | 60.1 | 55.8 | TOX | < 16.5
C=CCNc1nc(NCCC)nc(N2CCC(NCC(c3ccccc3)c3ccccc3)CC2)n1 [Example 7, 1-(4-propylamino-6-allylamino-2-s-triazinyl)-4-(2,2-diphenylethylamino)piperidine] | 14.47 | 26.0 | 34.17 | 36.63 | 102.8 | 135.6 | TOX | 992 | 2339 | – | 48.75 | 72.6 | 80.9 | 87.3 | –
C=CCNc1nc(NCCC)nc(N2CCC(NCCC(c3ccccc3)c3ccccc3)CC2)n1 [Example 8, 1-(4-propylamino-6-allylamino-2-s-triazinyl)-4-(3,3diphenylpropylamino)piperidine] | 4.5 | 17.85 | 27.15 | TOX | 75.9 | TOX | TOX | TOX | TOX | TOX | 38.9 | 60.1 | TOX | TOX | 16.5
C=CCNc1cc(N2CCC(NCCC(c3ccccc3)c3ccccc3)CC2)nc(NCC=C)n1 [Example 9, 1-(bis-2,4-allylamino-6-pyrimidinyl)-4-(3,3-diphenylpropylamino)piperidine] | 7.2 | 15.1 | 16.3 | 26.2 | 80.4 | TOX | TOX | 472 | TOX | – | 39.2 | 55.8 | 65.8 | TOX | 94
C=CCNc1nc(NCC=C)nc(N2CCC(NCC(c3cc(OC)cc(OC)c3)c3ccccc3C)CC2)n1 (centres unmarked) [Example 10, 1-[4,6-bis(allylamino)-2-s-triazinyl]-4-[2-(3,5-dimethoxyphenyl)-2-(2-methylphenyl)ethylamino]piperidine] | 14.8 | 24.7 | 26.5 | 28.2 | 125.1 | 75.3 | TOX | 1347 | TOX | – | 52.0 | 75.3 | 84.0 | 78.0 | 259
C=CCNc1nc(NCCC)nc(NC2CCN(CC(c3ccccc3)c3ccccc3)CC2)n1 [Example 11, 4-(4-allylamino-6-propylamino-2-s-triazinylamino)-1-(2,2-diphenylethyl)piperidine] | 12.6 | 18.9 | 29.9 | 40.5 | 87 | 65.2 | TOX | 281 | 926 | – | – | – | – | – | –
C=CCNc1nc(NCC=C)nc(N2CCC(NCCC(c3ccc(OC)c(OC)c3)c3ccc(OC)c(OC)c3)CC2)n1 [Example 12, 1-[4,6-bis(allylamino)-2-s-triazinyl]-4-[3,3-bis(3,4-dimethoxyphenyl)propylamino]piperidine] | 6.1 | 3.8 | 5.5 | 9.6 | 1.4 | 8 | TOX | < 16.5 | < 16.5 | – | – | – | – | – | –
